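In this assay, cells in 96-well plates receive the compound at five concentrations for 48 hours. Endpoints are linearly interpolated between the surrounding concentrations. GI50: concentration for 50% inhibition of growth. The concentration for full growth arrest is given as TGI.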 A value given as a limit tells only on which side of the number the result lay.

Among the test systems are A549 NSCLC; ACHN renal; DU-145 prostate; BT-549 breast; UACC-257 melanoma; SK-OV-3 ovarian; MDA-MB-231 breast; M14 melanoma; COLO 205 colon; OVCAR-8 ovarian.
What all share (assay): NCI tumour cell line growth inhibition, 48 h

Regarding `ClC(=Nc1cccc2ccccc12)N(c1ccccc1)c1ccccc1`, the TGI in the test on A549 NSCLC, with ACHN renal, in the test with DU-145 prostate, in the test with BT-549 breast, with UACC-257 melanoma and in the test on SK-OV-3 ovarian was greater than 100 µM throughout. In addition, the TGI in the test on MDA-MB-231 breast and in the test on M14 melanoma was greater than 100 µM throughout.

In the case of `COc1cc(O)c(C(=O)/C=C/c2ccccc2)c(OC)c1`, the TGI in the test with A549 NSCLC was found to be 30 µM; in the test with ACHN renal, 20.8 µM; in the test on DU-145 prostate, 21 µM; in the test on BT-549 breast it was 16.2 µM; in the test on COLO 205 colon, 28 µM; with OVCAR-8 ovarian, 10.1 µM. The TGI in the test with UACC-257 melanoma is 23.6 µM; with SK-OV-3 ovarian, 25.6 µM; in the test on MDA-MB-231 breast, 24.2 µM; in the test on M14 melanoma it was 84.1 µM.

For `O=[N+]([O-])c1ccc(Sc2ncccn2)c([N+](=O)[O-])c1`, the GI50 is 3.95 µM in the test on A549 NSCLC; 3.41 µM in the test on ACHN renal; 3.71 µM in the test with DU-145 prostate; 1.27 µM in the test on BT-549 breast; 3.11 µM in the test on COLO 205 colon; 4.33 µM with OVCAR-8 ovarian. Moreover, the GI50 was 5.33 µM in the test with UACC-257 melanoma, 12.5 µM with SK-OV-3 ovarian, 5.31 µM in the test with MDA-MB-231 breast and 5.26 µM in the test with M14 melanoma. The TGI with A549 NSCLC is 14.2 µM; in the test with ACHN renal it was 11.1 µM; in the test on DU-145 prostate it was 12.7 µM; in the test with BT-549 breast it was 4.19 µM; with COLO 205 colon, 10.8 µM; in the test on OVCAR-8 ovarian it was 14 µM. Moreover, the TGI in the test on UACC-257 melanoma was determined as 19.1 µM; in the test on SK-OV-3 ovarian, 25.2 µM; in the test on MDA-MB-231 breast, 17.1 µM; in the test with M14 melanoma it was 18.4 µM.

Consider `COC(=O)Nc1nc2ccc(C(=O)c3ccc[nH]3)cc2[nH]1`, for which the TGI in the test with A549 NSCLC is greater than 100 µM; in the test on ACHN renal, greater than 100 µM; in the test on DU-145 prostate, greater than 23.2 µM; in the test on BT-549 breast, greater than 100 µM; in the test with COLO 205 colon, greater than 100 µM; in the test with OVCAR-8 ovarian it was greater than 100 µM. Besides, the TGI was greater than 63 µM in the test on SK-OV-3 ovarian, greater than 100 µM in the test on MDA-MB-231 breast and greater than 26.9 µM with M14 melanoma.

Take `Cc1cc(NC(=O)C2c3ccccc3C(=O)N(CC(C)C)C2c2cccs2)no1` (stereo not drawn): the GI50 is greater than 100 µM in the test on A549 NSCLC; 55.2 µM in the test with ACHN renal; greater than 100 µM with DU-145 prostate; greater than 100 µM in the test with BT-549 breast; greater than 100 µM with COLO 205 colon; greater than 100 µM in the test on OVCAR-8 ovarian. Besides, the GI50 in the test on UACC-257 melanoma was greater than 100 µM; with SK-OV-3 ovarian it was greater than 100 µM; in the test with MDA-MB-231 breast, 21.2 µM. Further, the TGI in the test with A549 NSCLC, in the test with ACHN renal, with DU-145 prostate, with BT-549 breast, in the test with COLO 205 colon and in the test on OVCAR-8 ovarian was greater than 100 µM throughout. In addition, the TGI with UACC-257 melanoma is greater than 100 µM; in the test with SK-OV-3 ovarian, greater than 100 µM; in the test on MDA-MB-231 breast, 93.4 µM.

For the compound `COc1ccc(N(C)c2nc(C)nc3ccccc23)cc1`, the GI50 with A549 NSCLC was less than 0.01 µM; in the test with ACHN renal it was less than 0.01 µM; in the test with BT-549 breast, less than 0.01 µM; in the test on COLO 205 colon, less than 0.01 µM; in the test with OVCAR-8 ovarian, less than 0.01 µM; with UACC-257 melanoma, 11.3 µM. The GI50 in the test on SK-OV-3 ovarian, in the test on MDA-MB-231 breast and in the test on M14 melanoma was less than 0.01 µM in each case. The TGI was greater than 100 µM in the test with A549 NSCLC; greater than 91.8 µM with ACHN renal; 36.9 µM in the test on BT-549 breast; less than 0.01 µM in the test with COLO 205 colon; greater than 63.1 µM in the test with OVCAR-8 ovarian; 27 µM in the test with UACC-257 melanoma. The TGI is greater than 26.1 µM in the test with SK-OV-3 ovarian, greater than 100 µM with MDA-MB-231 breast and 14.9 µM in the test on M14 melanoma.

For `C1CCC([PH+](C2CCCCC2)C2CCCCC2[PH+](C2CCCCC2)C2CCCCC2)CC1.[Au].[CH-]1CCCCC1C1CCCC[N-]1` (stereo not drawn), the GI50 with ACHN renal is 1 µM; with DU-145 prostate, 0.401 µM; with BT-549 breast it was 0.294 µM; in the test with OVCAR-8 ovarian it was 0.278 µM; in the test on UACC-257 melanoma, 0.329 µM; with SK-OV-3 ovarian, 0.275 µM. In addition, the GI50 in the test with M14 melanoma is 0.425 µM. For the same compound, the TGI in the test on ACHN renal was 2.17 µM; with DU-145 prostate it was 2.44 µM; in the test on BT-549 breast it was 1.36 µM; with OVCAR-8 ovarian, greater than 100 µM; in the test with UACC-257 melanoma it was 2.24 µM; in the test on SK-OV-3 ovarian, 1.14 µM. In addition, in the test on M14 melanoma, the TGI turned out to be 2.27 µM.

As to `COc1cc2cc(Oc3ccc(NC(=O)Nc4cccc(C(F)(F)F)c4)cc3)c(C)nc2cc1OCCN1CCCCC1`, the GI50 in the test on ACHN renal is 1.69 µM; in the test with DU-145 prostate it was 1.68 µM; with BT-549 breast it was 1.78 µM; in the test on UACC-257 melanoma, 1.86 µM; in the test on SK-OV-3 ovarian, 2.06 µM; in the test with MDA-MB-231 breast, 1.36 µM. Besides, the GI50 in the test with M14 melanoma was 1.79 µM. The TGI stood at 3.06 µM with ACHN renal; 3.06 µM in the test with DU-145 prostate; 3.28 µM with BT-549 breast; 3.48 µM in the test on UACC-257 melanoma; 3.8 µM with SK-OV-3 ovarian; 2.73 µM in the test on MDA-MB-231 breast. Besides, in the test on M14 melanoma, the TGI stood at 3.27 µM.

For the compound `Cc1ccc(-c2c(C#N)c(N)nc(N3CCOCC3)c2C#N)o1`, the GI50 in the test on A549 NSCLC was 57.1 µM; with DU-145 prostate, 43.5 µM; with BT-549 breast, 62.9 µM; in the test with OVCAR-8 ovarian, 72.6 µM; in the test on UACC-257 melanoma it was 99.8 µM; in the test with MDA-MB-231 breast, 21 µM. In addition, the GI50 in the test with M14 melanoma was 87.9 µM. Moreover, the TGI is greater than 100 µM with A549 NSCLC; greater than 100 µM in the test with DU-145 prostate; greater than 100 µM in the test with BT-549 breast; greater than 100 µM in the test on OVCAR-8 ovarian; greater than 100 µM in the test on UACC-257 melanoma; 80.7 µM in the test on MDA-MB-231 breast. In the test on M14 melanoma, this compound displayed a TGI greater than 100 µM.

In the case of `O=C(CCCc1c[nH]c2ccccc12)NC1CC(=O)c2c(Br)sc(Br)c21` (stereo not drawn), the GI50 in the test on A549 NSCLC is 33.4 µM; with ACHN renal it was 16.5 µM; in the test with DU-145 prostate, 23.5 µM; with BT-549 breast, 17.4 µM; in the test with COLO 205 colon, 19.8 µM; in the test with OVCAR-8 ovarian, 9.41 µM. The GI50 in the test with UACC-257 melanoma is 19.2 µM; in the test on SK-OV-3 ovarian it was 22.7 µM; in the test with MDA-MB-231 breast, 16.5 µM. In addition, the TGI with A549 NSCLC is greater than 100 µM; in the test with ACHN renal, 30.4 µM; in the test with DU-145 prostate, greater than 100 µM; in the test with BT-549 breast, 37.1 µM; in the test with COLO 205 colon it was 41.3 µM; in the test on OVCAR-8 ovarian, greater than 100 µM. The TGI was 48.1 µM in the test on UACC-257 melanoma, 55.2 µM with SK-OV-3 ovarian and 32.1 µM in the test with MDA-MB-231 breast.

For the origin of these results see PubChem BioAssay (NCI).
